Results reported in the supplement of paper PMC11208160.

experiment: recombinant UMI read abundance after kanamycin selection (control-corrected) (log10(CPM+1)); higher = more efficient recombination; extreme values may be limits of the assay; sequences stand for … in AGTGCAGAGAAAATCGGCCAGTTTTCTCTGCCTGCAGTCCGCATGCCGTGGGACCCCTTGGGTTCTAACCTGTTGCCTAGATTTATGCAGCGGACTGCCTTTCTCCCAAAGTGATAAACCGG…AGGTTGGTTTCACT; site = the 11-nt donor
How it was run: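 Values are reported as log10(CPM+1), obtained by converting sequencing counts to CPM, averaging replicates and scaling by control-derived factors. The counts came from recombinant UMIs amplified by PCR across the donor–target junction. These UMIs came from a pooled Escherichia coli screen of donor and donor-binding-loop pairs for the IS621 bridge recombinase, plated with IPTG (0.07 mM) plus kanamycin or left unselected, in two replicates each.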
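Note: IS621 bridge recombinase in Escherichia coli cells against a fixed T5 target plasmid.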

Sequence | recombinant UMI read abundance (log10)
TATTTTGCATGGACCGGTTTTCCCGGTAATCCGTATTTGTG (site TATTTCGCTCA) | 0.0112
TATTTTGCATGGACCGGTTTTCCCGGTAATCCGTATTTGTG (site TATTTGGCTCA) | 0
TATTTTGCATGGACCGGTTTTCCCGGTAATCCGTATTTGTG (site TATTTTGCTCA) | 0.00898
TCAATTTCATGGACCGGTTTTCCCGGTAATCCGTATTTGGC (site TCAATTTCTGC) | 0
TCACACTCATGGACCGGTTTTCCCGGTAATCCGTATTTGAT (site TCACACTCTAT) | 2.38
TCACAGCCATGGACCGGTTTTCCCGGTAATCCGTATTTGCA (site TCACAGCCTTG) | 0.816
TCACCTGCATGGACCGGTTTTCCCGGTAATCCGTATTTGCG (site TCACCTGCTCG) | 0.016
TCACCTGCATGGACCGGTTTTCCCGGTAATCCGTATTTGTT (site TCACCTGCTAA) | 0.063
TCACGCACATGGACCGGTTTTCCCGGTAATCCGTATTTGCT (site TCACGCACTAG) | 1.97
TCACGTACATGGACCGGTTTTCCCGGTAATCCGTATTTGAT (site TCACGTACTAT) | 0.589
TCACGTCCATGGACCGGTTTTCCCGGTAATCCGTATTTGGC (site TCACGTCCTGC) | 0
TCAGACTCATGGACCGGTTTTCCCGGTAATCCGTATTTGCA (site TCAAACTCTTG) | 0.771
TCAGACTCATGGACCGGTTTTCCCGGTAATCCGTATTTGCA (site TCACACTCTTG) | 1.19
TCAGACTCATGGACCGGTTTTCCCGGTAATCCGTATTTGCA (site TCAGACTCTTG) | 2.95
TCAGACTCATGGACCGGTTTTCCCGGTAATCCGTATTTGCA (site TCATACTCTTG) | 0.807
TCAGATACATGGACCGGTTTTCCCGGTAATCCGTATTTGGC (site TCAGATACTGC) | 0
TCAGCATCATGGACCGGTTTTCCCGGTAATCCGTATTTGCA (site ACAGTATCTTG) | 0.8
TCAGCATCATGGACCGGTTTTCCCGGTAATCCGTATTTGCA (site TCAGCATCTTG) | 0.224
TCAGCCTCATGGACCGGTTTTCCCGGTAATCCGTATTTGAT (site TCAGCCTCTAT) | 1.36

Sequence | recombinant UMI read abundance (log10)
TCAGCGACATGGACCGGTTTTCCCGGTAATCCGTATTTGCG (site TCAGAGACTCG) | 0.00361
TCAGCGACATGGACCGGTTTTCCCGGTAATCCGTATTTGCG (site TCAGCGACTCG) | 1.37
TCAGCGACATGGACCGGTTTTCCCGGTAATCCGTATTTGCG (site TCAGGGACTCG) | 0.0187
TCAGCGACATGGACCGGTTTTCCCGGTAATCCGTATTTGCG (site TCAGTGACTCG) | 0.00864
TCAGCTGCATGGACCGGTTTTCCCGGTAATCCGTATTTGTG (site TAAGCTGCTCA) | 0.0147
TCAGCTGCATGGACCGGTTTTCCCGGTAATCCGTATTTGTG (site TCAGCTGCTCA) | 0.637
TCAGCTGCATGGACCGGTTTTCCCGGTAATCCGTATTTGTG (site TGAGCTGCTCA) | 0.00568
TCAGCTGCATGGACCGGTTTTCCCGGTAATCCGTATTTGTG (site TTAGCTGCTCA) | 0.0047
TCAGGCACATGGACCGGTTTTCCCGGTAATCCGTATTTGGC (site TCAGGCACTGC) | 0.89
TCAGGGACATGGACCGGTTTTCCCGGTAATCCGTATTTGCG (site TCAGAGACTCG) | 0.74
TCAGGGACATGGACCGGTTTTCCCGGTAATCCGTATTTGCG (site TCAGCGACTCG) | 0.0114
TCAGGGACATGGACCGGTTTTCCCGGTAATCCGTATTTGCG (site TCAGGGACTCG) | 1.03
TCAGGGACATGGACCGGTTTTCCCGGTAATCCGTATTTGCG (site TCAGTGACTCG) | 0.0229
TCAGTAACATGGACCGGTTTTCCCGGTAATCCGTATTTGTA (site TCAGTAACTTA) | 1.71
TCAGTAGCATGGACCGGTTTTCCCGGTAATCCGTATTTGGC (site TCAGTAGCTGC) | 1.54
TCAGTTCCATGGACCGGTTTTCCCGGTAATCCGTATTTGAA (site TCAGTTCCTTT) | 0.398
TCAGTTTCATGGACCGGTTTTCCCGGTAATCCGTATTTGCA (site ACAGTATCTTG) | 0.0288
TCAGTTTCATGGACCGGTTTTCCCGGTAATCCGTATTTGCA (site TCAGTTTCTTG) | 1.14
TCATACACATGGACCGGTTTTCCCGGTAATCCGTATTTGCA (site TCATACACTTG) | 2.45

Sequence | recombinant UMI read abundance (log10)
TCATACACATGGACCGGTTTTCCCGGTAATCCGTATTTGCA (site TCATACCCTTG) | 0.302
TCATACACATGGACCGGTTTTCCCGGTAATCCGTATTTGCA (site TCATACGCTTG) | 1.36
TCATACACATGGACCGGTTTTCCCGGTAATCCGTATTTGCA (site TCATACTCTTG) | 1.5
TCATACCCATGGACCGGTTTTCCCGGTAATCCGTATTTGTG (site TCATACCCTCA) | 0
TCATACTCATGGACCGGTTTTCCCGGTAATCCGTATTTGGA (site TCATACTCTTA) | 0.26
TCATACTCATGGACCGGTTTTCCCGGTAATCCGTATTTGGA (site TCATACTCTTC) | 1.76
TCATACTCATGGACCGGTTTTCCCGGTAATCCGTATTTGGA (site TCATACTCTTG) | 0
TCATACTCATGGACCGGTTTTCCCGGTAATCCGTATTTGGA (site TCATACTCTTT) | 1.17
TCATACTCATGGACCGGTTTTCCCGGTAATCCGTATTTGTA (site TCATACTCTTA) | 1.51
TCATACTCATGGACCGGTTTTCCCGGTAATCCGTATTTGTA (site TCATACTCTTC) | 0.00471
TCATACTCATGGACCGGTTTTCCCGGTAATCCGTATTTGTA (site TCATACTCTTG) | 0
TCATACTCATGGACCGGTTTTCCCGGTAATCCGTATTTGTA (site TCATACTCTTT) | 0.299
TCATAGACATGGACCGGTTTTCCCGGTAATCCGTATTTGAC (site TCATAGACTGT) | 0.421
TCATAGGCATGGACCGGTTTTCCCGGTAATCCGTATTTGTT (site TCATAGGCTAA) | 1.27
TCATAGTCATGGACCGGTTTTCCCGGTAATCCGTATTTGCA (site TCATAATCTTG) | 2.41
TCATAGTCATGGACCGGTTTTCCCGGTAATCCGTATTTGCA (site TCATACTCTTG) | 0.653
TCATAGTCATGGACCGGTTTTCCCGGTAATCCGTATTTGCA (site TCATAGTCTTG) | 2.25
TCATAGTCATGGACCGGTTTTCCCGGTAATCCGTATTTGCA (site TCATATTCTTG) | 0
TCATCCTCATGGACCGGTTTTCCCGGTAATCCGTATTTGAA (site TCATCCTCTTT) | 1.05
